From patent US20040023886A1, “Method for treating neurological conditions and inducing immunosuppression with cephaibols” (Aventis Pharma Deutschland Gmbh, priority 2002, published 2004)
Entries after “also recorded” stand apart in the source; their conditions may differ. Where a SMILES comes first, the peptide text is derived from it. [ ]: non-standard residue; d: D form. Hyp = O=C(O)[CH]1C[CH](O)CN1; Phe(ol) = N[CH](CO)Cc1ccccc1; Iva = CC[C](C)(N)C(=O)O; Aib = CC(C)(N)C(=O)O

Legend:
Phoma destructiva = assay: Induction of pigment formation in Phoma destructiva, punched-hole plate agar diffusion test; format: cell-based; details: 50 µL of test solution per hole, 20 to 25° C., 4 to 5 days
Description: The induction of pigment formation in the fungus Phoma destructiva is a test model for, inter alia, identifying a potential immunosuppressant effect in test substances. The implementation of the Phoma destructiva test has been described by K. Dornberger et al. in J. Antibiotics, §, 977-989,1995.
The organism Phoma destructiva is a fungus which is known to be pathogenic to plants and which grows, in feebly colored colonies, on agar plates which have been inoculated with vegetative mycelium. Cell differentiation processes, which are accompanied by the formation of a pigment and therefore enable cell differentiation to be detected, are initiated under the influence of special inducers. The pigment, which is a melanin-like substance, can be recognized by its color and quantified photometrically or by measuring the zone size.
The fungus Phoma destructiva was cultured on sloping agar tubes containing culture medium A or B at from 20 to 25° C. and then stored at from 4 to 6° C. and reinoculated in a 2-year rhythm.
The fungus Phoma destructiva was cultured at from 20 to 25° C. for 11 days on medium B in 100 mm diameter petri dishes and, after that, washed off with 10 ml of a sterile 0.9% solution of NaCl. The wash-off can be used for 5 days when stored at 8° C.
The agar diffusion test method was a modification of the standardized agar diffusion assay described in the European Pharmacopoeia [Deutscher Apothekerverlag Stuttgart, pages 113-118, 1997]: 40 mL of test agar medium were liquefied and brought to a constant temperature of 50° C.; from 8 to 10 mL of the inoculation culture were added under sterile conditions and the mixture was then poured into 150 mm diameter test plates. After the plates had cooled, 12 punched holes of 9 mm in diameter were arranged on the plate using a punching implement [J, V. Benett et al. Appl. Micr.1.1;, 170-177, 1966]. The test holes were loaded with 50JiL of the solution to be tested, with one test hole containing cyclosporin as the control substance (1 μg of cyclosporin A in 50 μL of methanol). […]

laboratory mice [1] = assay: Hypothermia (neuroleptic effect, mouse model); format: in vivo; details: 10 mg/kg intraperitoneal
Description: (§1) Neuroleptic effect of the cephaibols in the mouse model

laboratory mice [2] = assay: Influence on spontaneous motility (neuroleptic effect, mouse model); format: in vivo; details: 10 mg/kg intraperitoneal, observed from 5 min up to 24 hours
Protocol: as §1
The influence of cephaibols A, B, C, D and E on motoricity in laboratory mice was observed over various periods of time (from 5 min up to 24 hours).
Fright reactions (noises) were retained, thereby ruling out the possibility of the cephaibols having a narcotic effect in the experimental arrangement.

platelet aggregation = details: literature; cited from earlier work

Compound	pigment formation in Phoma destructiva (Phoma destructiva)	body temperature as compared with the control animals (laboratory mice [1])	motoricity (climbing) in comparison with the control mice (laboratory mice [2])	platelet aggregation (platelet aggregation)
CCC(C)(NC(=O)C(CC(C)C)NC(=O)CNC(=O)C(C)(C)NC(=O)C(C)(C)NC(=O)C(C)(C)NC(=O)C(C)(C)NC(=O)C(Cc1ccccc1)NC(C)=O)C(=O)NC(C)(C)C(=O)N1CC(O)CC1C(=O)NC(CCC(N)=O)C(=O)NC(C)(CC)C(=O)N1CC(O)CC1C(=O)NC(C)(C)C(=O)N1CCCC1C(=O)NC(CO)Cc1ccccc1 (stereo not drawn) [cephaibol A, AcPhe-Aib-Aib-Aib-Aib-Gly-Leu-Iva-Aib-Hyp-Gln-Iva-Hyp-Aib-Pro-Phe-ol] (Ac-F[Aib][Aib][Aib][Aib]GL[Iva][Aib][Hyp]Q[Iva][Hyp][Aib]P[Phe(ol)]; configuration not given here)	particularly pronounced	marked reduction	impaired	
CCC(C)(NC(=O)C(CC(C)C)NC(=O)CNC(=O)C(C)(CC)NC(=O)C(C)(C)NC(=O)C(C)(C)NC(=O)C(C)(C)NC(=O)C(Cc1ccccc1)NC(C)=O)C(=O)NC(C)(C)C(=O)N1CC(O)CC1C(=O)NC(CCC(N)=O)C(=O)NC(C)(CC)C(=O)N1CC(O)CC1C(=O)NC(C)(C)C(=O)N1CCCC1C(=O)NC(CO)Cc1ccccc1 (stereo not drawn) [cephaibol B, AcPhe-Aib-Aib-Aib-Iva-Gly-Leu-Iva-Aib-Hyp-Gln-Iva-Hyp-Aib-Pro-Phe-ol] (Ac-F[Aib][Aib][Aib][Iva]GL[Iva][Aib][Hyp]Q[Iva][Hyp][Aib]P[Phe(ol)]; configuration not given here)	particularly pronounced	marked reduction; also recorded: particularly pronounced	impaired; also recorded: particularly pronounced	
CCC(C)(NC(=O)C(CC(C)C)NC(=O)CNC(=O)C(C)(C)NC(=O)C(C)(C)NC(=O)C(C)(C)NC(=O)C(C)(C)NC(=O)C(Cc1ccccc1)NC(C)=O)C(=O)NC(C)(C)C(=O)N1CC(O)CC1C(=O)NC(CCC(N)=O)C(=O)NC(C)(C)C(=O)N1CC(O)CC1C(=O)NC(C)(C)C(=O)N1CCCC1C(=O)NC(CO)Cc1ccccc1 (stereo not drawn) [cephaibol C, AcPhe-Aib-Aib-Aib-Aib-Gly-Leu-Iva-Aib-Hyp-Gln-Aib-Hyp-Aib-Pro-Phe-ol] (Ac-F[Aib][Aib][Aib][Aib]GL[Iva][Aib][Hyp]Q[Aib][Hyp][Aib]P[Phe(ol)]; configuration not given here)	particularly pronounced	marked reduction; also recorded: particularly pronounced	impaired; also recorded: particularly pronounced	
CCC(C)(NC(=O)C(CC(C)C)NC(=O)CNC(=O)C(C)(C)NC(=O)C(C)(C)NC(=O)C(C)(C)NC(=O)C(C)(C)NC(=O)C(Cc1ccccc1)NC(C)=O)C(=O)NC(C)(C)C(=O)N1CC(O)CC1C(=O)NC(CCC(N)=O)C(=O)NC(C)(C)C(=O)N1CC(O)CC1C(=O)NC(C)(C)C(=O)N1CCCC1C(=O)NC(CO)Cc1ccccc1 (stereo not drawn) [cephaibol D, AcPhe-Aib-Aib-Aib-Aib-Gly-Leu-Aib-Aib-Hyp-Gln-Aib-Hyp-Aib-Pro-Xaa5] (Ac-F[Aib][Aib][Aib][Aib]GL[Iva][Aib][Hyp]Q[Aib][Hyp][Aib]P[Phe(ol)]; configuration not given here)			impaired	
Clonostachin				inhibits
